# According to patent US20080187508A1, “Treatment of Golmerular Basement Membrane Disease Involving Matrix Metalloproteinase-12” (BOYS TOWN NATIONAL RESEARCH HOSPITAL, priority 2004, published 2008):
# Entries after “also recorded” stand apart in the source; their conditions may differ. Where a name gives a salt, the structure may show the parent alone.
# Tests used:
# Alport mice [1] = experiment: immunofluorescence of kidney cryosections (fibronectin, collagen IV α1/α2) of treated Alport mice; type: in vivo, mouse; settings: Alport mice treated from 4 to 7 weeks of age, MMI-270 50 μg/g I.P., BAY 129566 4 mg once daily oral gavage, fibronectin and collagen IV α1/α2 immunostaining
# Protocol: The Alport mouse model has been described (Cosgrove et al. (1996) Genes Dev. 10, 2981-2992). The control mice used were normal for both collagen α3(IV) alleles, and are a product of double heterozygote crosses for the Alport mutation. The use of animals in this study was performed in accordance with an approved institutional IACUC protocol. Extreme care was taken to minimize pain and discomfort suffered by the mice. MMP inhibitors were administered between 4 and 7 weeks of age. All drugs were freshly prepared prior to administration. BAY 129566 was emulsified in suspension with 0.5% carboxymethyl cellulose and 4 mg given once a day by oral gavage. MMI-270 was solubilized in 0.9% saline and administered by I.P. injection (50 μg/g body weight) once a day.
# Cryosections ([…]) of kidneys from 7-week-old normal and Alport mice were air dried, fixed by immersion in ice cold acetone, and subjected to immunohistochemical staining analysis using antibodies specific for MMP-3 (rabbit polyclonal anti-human MMP-3, a gift from Dr. Z. Gunza-Smith, Miami, Fla., used at 1:200 dilution), MMP-12 (rabbit polyclonal antibody against mouse MMP-12, kindly provided by Yoshikatsu Kaneko, used at 1:100 dilution), type IV collagen α1/2 chains (rabbit polyclonal against mouse type IV collagen, Biodesign, Inc., Saco, Me., used at 1:200 dilution), fibronectin (rabbit polyclonal against human plasma fibronectin, Sigma Chemical Co., St. Louis, Mo., used at 1:200). Anti-CD31 antibodies were directly conjugated to Alexa 568 (Molecular Probes, Eugene Oreg.) and purchased from Immunotech (Marseille, France). […] Images were collected using a Cytovision Ultra Image analysis system interfaced with an Olympus BH-2 fluorescence microscope.
# To assess the effect of these two compounds on Alport renal disease progression, Alport mice were administered either MMI 270 or BAY 129566 from 4 to 7 weeks of age. […] Cryosections were analyzed by immunofluorescence microscopy to assess for the degree of glomerular and tubulointerstitial damage using antibodies specific for collagen IV α1 and α2 chains, and fibronectin.
# Alport mice [2] = experiment: transmission electron microscopy of glomerular basement membrane of treated Alport mice; type: in vivo, mouse; settings: Alport mice treated with MMP inhibitor from 4 to 7 weeks of age, electron microscopy
# Protocol: The Alport mouse model has been described (Cosgrove et al. (1996) Genes Dev. 10, 2981-2992). The control mice used were normal for both collagen α3(IV) alleles, and are a product of double heterozygote crosses for the Alport mutation. The use of animals in this study was performed in accordance with an approved institutional IACUC protocol. Extreme care was taken to minimize pain and discomfort suffered by the mice. MMP inhibitors were administered between 4 and 7 weeks of age. All drugs were freshly prepared prior to administration. BAY 129566 was emulsified in suspension with 0.5% carboxymethyl cellulose and 4 mg given once a day by oral gavage. MMI-270 was solubilized in 0.9% saline and administered by I.P. injection (50 μg/g body weight) once a day. Transmission electron microscopy was performed as previously described (Cosgrove et al., 1996, Genes Dev. 10, 2981-2992). Ultrastructural localization studies of type IV collagen were performed essentially as previously described (Bhattacharya et al., 2002). Kidneys from 7-week-old control and Alport mice were fixed by heart perfusion with 2% paraformaldehyde in PBS, and post-fixed in this same solution overnight. Ultrathin (70 nm) sections were reacted for 4 hours at room temperature with goat anti-collagen IV antibodies (Southern Biotechnology, Birmingham, Ala.). After six 10 minute washes in PBS, specimen were reacted for 2 hours at room temperature with 10 nanometers (nm) gold-conjugated anti-rabbit antibodies (Vector Laboratories, Burlingame, Calif.). Grids were washed as before, air-dried, counterstained with uranyl acetate, and examined using transmission electron microscopy. Propagermanium (3-oxygemylpropinic acid polymer, Sanwa Kagaku Kenkyusho Co., Nagoya, Japan) was administered orally (10 milligrams per kilogram (mg/kg) in 1% gelatin) by gavage once daily starting at 5 weeks of age, and kidneys harvested at 7 weeks of age. Three animals per group, Alport mice and control litter mates, gavaged with drug or vehicle only, were analyzed. […] Proteolytic degradation of the GBM in Alport syndrome might underlie the progressive irregular GBM damage and podocyte foot process effacement. Type IV collagen from Alport kidneys is more susceptible to proteolytic degradation in vitro than type IV collagen from healthy kidneys (Kalluri et al. (1997) J. Clin. Invest. 99, 2470-2478, presumably owing to the reduced number of interchain disulfide crosslinks (Gunwar et al. (1998) J. Biol. Chem. 273, 8767-8775).
# MMP-2 = target: T1, MMP-2 (Homo sapiens, UniProt P08253); settings: hydrochloride monohydrate; cited from earlier work
# T1 sequence (P08253 110-660): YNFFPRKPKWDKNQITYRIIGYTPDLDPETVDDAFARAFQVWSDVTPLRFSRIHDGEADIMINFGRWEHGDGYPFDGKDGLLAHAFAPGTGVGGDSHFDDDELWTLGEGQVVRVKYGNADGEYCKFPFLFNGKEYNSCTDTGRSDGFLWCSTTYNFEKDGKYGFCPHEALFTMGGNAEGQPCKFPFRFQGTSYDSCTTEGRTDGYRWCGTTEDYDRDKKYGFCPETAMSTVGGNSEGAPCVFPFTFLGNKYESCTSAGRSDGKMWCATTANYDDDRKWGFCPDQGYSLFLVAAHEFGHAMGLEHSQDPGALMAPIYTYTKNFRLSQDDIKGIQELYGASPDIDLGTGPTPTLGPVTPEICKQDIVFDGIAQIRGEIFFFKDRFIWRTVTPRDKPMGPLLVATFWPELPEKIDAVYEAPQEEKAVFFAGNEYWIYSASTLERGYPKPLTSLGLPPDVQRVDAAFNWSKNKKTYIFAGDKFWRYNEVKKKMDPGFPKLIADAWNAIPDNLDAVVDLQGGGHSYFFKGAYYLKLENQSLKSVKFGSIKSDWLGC
# MMP-14 = MMP-14 (Homo sapiens, UniProt P50281); settings: hydrochloride monohydrate; cited from earlier work
# [3] = listed as NMI 270, hydrochloride monohydrate
smiles,measurement,setting,value
"COc1ccc(S(=O)(=O)N(Cc2cccnc2)[C@@H](C(=O)NO)C(C)C)cc1 [MMI 270, N-hydroxy-2(R)-[(4-methoxysulfonyl)(3-picolyl)amino]-3-methylbutaneamide hydrochloride monohydrate]",glomerular and tubulointerstitial (renal) disease progression,Alport mice [1]; hydrochloride monohydrate,very little glomerular or interstitial disease; also recorded: remarkable improvement
same,glomerular and tubulointerstitial (renal) disease progression,Alport mice [1]; [3],significantly reduced interstitial disease
same,glomerular basement membrane architecture,Alport mice [2]; hydrochloride monohydrate,near complete restoration of normal glomerular basement membrane architecture; also recorded: prevents or reverses GBM damage
same,glomerular basement membrane architecture,"Alport mice [2]; listed as MMI-270, hydrochloride monohydrate",largely restored GBM ultrastructure and function; also recorded: markedly improved glomerular basement membrane architecture
same,glomerular basement membrane architecture,Alport mice [2]; [3],markedly improved GBM ultrastructure
same,"MMP inhibitory effect, MMP-2",MMP-2,inhibits
same,"MMP inhibitory effect, MMP-14",MMP-14,inhibits
